According to PMC6522510 (Nature Communications, 2019):
Like-named read-outs stand apart in the source and are kept apart here.

Key:
CMK = assay: Secondary dose-response HTS, Cell Titer Glo; type: cell-based, human; details: CMK; for EC50: Homo sapiens, read-out: average effective concentration, CMK
MV4-11 [1] = assay: Secondary dose-response HTS, Cell Titer Glo; type: cell-based, human
ML2 = assay: Secondary dose-response HTS, Cell Titer Glo; type: cell-based, human; details: for EC50: Homo sapiens
U937 [2] = assay: Secondary dose-response HTS, Cell Titer Glo; type: cell-based, human; details: for EC50: Homo sapiens
MOLM-13 [3] = assay: Secondary dose-response HTS, Cell Titer Glo; type: cell-based, human
CHRF288-11 [4] = assay: Secondary dose-response HTS, Cell Titer Glo; type: cell-based, human; details: secondary high-throughput screen, CHRF288-11; for EC50: Homo sapiens, HTS, read-out: average effective concentration, CHRF288-11
CMS = assay: cells; parameters: species or system AML cell lines (8); Secondary HTS, 10-point dose-response in triplicate, Cell Titer Glo viability, four-parameter fit EC50; details: 72 h, read-out: CMS
M07e = assay: cells; parameters: species or system AML cell lines (8); Secondary HTS, 10-point dose-response in triplicate, Cell Titer Glo viability, four-parameter fit EC50; details: M-07e, 72 h, read-out: M07e
MOLM-13 [5] = assay: cells; parameters: species or system AML cell lines (8); Secondary HTS, 10-point dose-response in triplicate, Cell Titer Glo viability, four-parameter fit EC50; details: Homo sapiens, MOLM-13, 72 h, read-out: MOLM-13
MV4-11 [6] = assay: cells; parameters: species or system AML cell lines (8); Secondary HTS, 10-point dose-response in triplicate, Cell Titer Glo viability, four-parameter fit EC50; details: Homo sapiens, MV4-11, 72 h, read-out: MV4-11
CHRF288-11 [7] = assay: cells; parameters: species or system AML cell lines (8); Secondary HTS, 10-point dose-response in triplicate, Cell Titer Glo viability, four-parameter fit EC50; details: 72 h, read-out: CHRF288-11
U937 [8] = assay: cells; parameters: species or system AML cell lines (8); Secondary HTS, 10-point dose-response in triplicate, Cell Titer Glo viability, four-parameter fit EC50; details: Homo sapiens, U-937, 72 h, read-out: U937
[9] = secondary high-throughput screen
[10] = Homo sapiens, secondary high-throughput screen, MV4-11, read-out: average effective concentration, MV4-11
[11] = secondary high-throughput screen, ML-2, read-out: average effective concentration, ML-2
[12] = U-937, secondary high-throughput screen, U937, read-out: average effective concentration, U937
[13] = Homo sapiens, secondary high-throughput screen, MOLM-13, read-out: average effective concentration, MOLM-13
[14] = secondary high-throughput screen, MV4-11
[15] = secondary high-throughput screen, MOLM-13
[16] = ML-2, read-out: average effective concentration, ML-2
[17] = U-937, read-out: average effective concentration, U937

Molecule: NC(=O)c1cccc2cn(-c3ccc([C@@H]4CCCNC4)cc3)nc12 [NIRAPARIB]
- EC50 (CMK; [9]): 280 nM
- EC50 (MV4-11 [1]; [10]): > 10000 nM
- EC50 (ML2; [11]): 180 nM
- EC50 (U937 [2]; [12]): > 10000 nM
- EC50 (MOLM-13 [3]; [13]): 7600 nM
- EC50 (CHRF288-11 [4]): 220 nM

Molecule: O=c1cc(N2CCOCC2)oc2c(-c3cccc4c3sc3ccccc34)cccc12 [NU 7441]
- average effective concentration, CMK (CMK; [9]): Inactive
- average effective concentration, MV4-11 (MV4-11 [1]; [14]): Inactive
- average effective concentration, U937 (U937 [2]; secondary high-throughput screen, U937): Inactive
- average effective concentration, MOLM-13 (MOLM-13 [3]; [15]): Inactive
- average effective concentration, CHRF288-11 (CHRF288-11 [4]): Inactive

Molecule: CCNC(=O)c1noc(-c2cc(C(C)C)c(O)cc2O)c1-c1ccc(CN2CCOCC2)cc1 [NVP-AUY922]
- EC50 (CMK; [9]): 1 nM
- EC50 (MV4-11 [1]; [10]): 1 nM
- EC50 (CMS): > 10000 nM
- EC50 (M07e): > 10000 nM
- EC50 (ML2; [11]): 23 nM
- EC50 (U937 [2]; [12]): 1 nM
- EC50 (MOLM-13 [3]; [13]): 1 nM
- EC50 (CHRF288-11 [4]): 21 nM

Molecule: COc1ccc(-c2ccc3ncc4c(c3c2)n(-c2ccc(N3CCNCC3)c(C(F)(F)F)c2)c(=O)n4C)cn1 [NVP-BGT226]
- EC50 (MOLM-13 [5]): 115 nM

Molecule: CN(c1ncccc1CNc1nc(Nc2ccc3c(c2)CC(=O)N3)ncc1C(F)(F)F)S(C)(=O)=O [PF-00562271]
- average effective concentration, MV4-11 (MV4-11 [1]; [14]): Inactive
- average effective concentration, MOLM-13 (MOLM-13 [3]; [15]): Inactive
- average effective concentration, CHRF288-11 (CHRF288-11 [4]): Inactive

Molecule: COc1cc(/C=C/c2ccc(O)cc2)cc(OC)c1 [PTEROSTILBENE]
- EC50 (MV4-11 [6]): > 10000 nM
- EC50 (CMK): 1400 nM
- EC50 (CHRF288-11 [7]): > 10000 nM
- EC50 (CMS): > 10000 nM
- EC50 (M07e): > 10000 nM
- EC50 (ML2; [16]): > 10000 nM
- EC50 (U937 [2]; [17]): > 10000 nM
- EC50 (MOLM-13 [3]; [13]): > 10000 nM

Molecule: Cc1[nH]c2ccccc2c1CCNCc1ccc(/C=C/C(=O)NO)cc1 [Panobinostat]
- EC50 (U937 [8]): 12.4 nM

Molecule: O=C(NC[C@H](O)CO)c1ccncc1Nc1ccc(I)cc1F [Pimasertib]
- EC50 (CMK; [9]): > 10000 nM
- EC50 (CHRF288-11 [7]): > 10000 nM
- EC50 (U937 [8]): > 10000 nM
- EC50 (MV4-11 [1]; [10]): 6300 nM
- EC50 (CMS): > 10000 nM
- EC50 (M07e): > 10000 nM
- EC50 (MOLM-13 [5]): > 10000 nM
- EC50 (ML2; [11]): 1 nM

Molecule: Nc1ccc2ncnc(NCCc3ccc(Oc4ccccc4)cc3)c2c1 [QNZ]
- average effective concentration, CMK (CMK; [9]): Inactive
- average effective concentration, MV4-11 (MV4-11 [1]; [14]): Inactive
- average effective concentration, ML-2 (ML2; secondary high-throughput screen, ML-2): Inactive
- average effective concentration, MOLM-13 (MOLM-13 [3]; [15]): Inactive
- average effective concentration, CHRF288-11 (CHRF288-11 [4]): Inactive

Molecule: O=C(CCCCCCNC(=O)c1cnc(N(c2ccccc2)c2ccccc2)nc1)NO [ROCILINOSTAT]
- average effective concentration, MV4-11 (MV4-11 [1]; [14]): Inactive
- average effective concentration, MOLM-13 (MOLM-13 [3]; [15]): Inactive

Molecule: O=C(Nc1ncc([N+](=O)[O-])s1)c1ccc([N+](=O)[O-])c(Cl)c1 [SM-7368]
- average effective concentration, CMK (CMK; [9]): Inactive
- average effective concentration, MV4-11 (MV4-11 [1]; [14]): Inactive
- average effective concentration, MOLM-13 (MOLM-13 [3]; [15]): Inactive
- average effective concentration, CHRF288-11 (CHRF288-11 [4]): Inactive

Molecule: Nc1nc(NC2CC2)cc(-c2cccc(Cl)c2Cl)n1 [TH588]
- average effective concentration, MV4-11 (MV4-11 [1]; [14]): Inactive
- average effective concentration, MOLM-13 (MOLM-13 [3]; [15]): Inactive
- average effective concentration, CHRF288-11 (CHRF288-11 [4]): Inactive

Molecule: Cc1cc(Nc2cc(N3CCN(C)CC3)nc(Sc3ccc(NC(=O)C4CC4)cc3)n2)[nH]n1 [TOZASERTIB]
- EC50 (CMK): 1400 nM
- EC50 (MV4-11 [1]; Homo sapiens, MV4-11, read-out: average effective concentration, MV4-11): 68 nM
- EC50 (ML2; [16]): > 10000 nM
- EC50 (U937 [2]; [17]): > 10000 nM
- EC50 (MOLM-13 [3]; Homo sapiens, MOLM-13, read-out: average effective concentration, MOLM-13): 39 nM

Molecule: CC[C@@H]1C(=O)N(C)c2cnc(Nc3ccc(C(=O)N[C@H]4CC[C@H](N5CCN(CC6CC6)CC5)CC4)cc3OC)nc2N1C(C)C [Volasertib]
- EC50 (M07e): > 10000 nM
- EC50 (MOLM-13 [5]): 7.7 nM

Molecule: CCN(CCCOc1ccc2c(Nc3cc(CC(=O)Nc4cccc(F)c4)n[nH]3)ncnc2c1)CCOP(=O)(O)O [barasertib]
- EC50 (CHRF288-11 [7]): > 10000 nM
- EC50 (CMS): > 10000 nM
- EC50 (M07e): > 10000 nM

Molecule: AZD4547
- EC50 (MV4-11 [1]; secondary high-throughput screen, MV4-11, read-out: average effective concentration, MV4-11): 7800 nM
- EC50 (MOLM-13 [3]; secondary high-throughput screen, MOLM-13, read-out: average effective concentration, MOLM-13): 4100 nM
